Test results from patent publication US20110111016A1, “NON-DNA BASE-CONTAINING POLYNUCLEOTIDE COMPOSITIONS AND THEIR USE FOR THE MODULATION OF IMMUNE RESPONSES” (priority 2009, published 2011).
Strand notation (5' to 3'): a small letter for the sugar, then the base; units joined by * are phosphorothioate-linked, units joined directly phosphodiester-linked; [ ] holds rarer units or linkages, { } end groups; capitals alone tell only the bases. d = 2'-deoxy (DNA)

Test system: human PBMC
Assay: Induction of cytokines and chemokines from human PBMC, comparison with CpG polynucleotides (Milliplex MAP kit)
Format: cell-based
Conditions: for Cytokine, IL-6 / Cytokine, IL-10 / Cytokine, MCP-1 / Cytokine, RANTES (CCL5): human PBMC culture supernatant, 48 h, final concentration 10 μg/mL; for Chemokine (MCP-1, RANTES) inducing activity towards human PBMC (in words) / Interleukin (cytokine) inducing activity towards human PBMC (in words): in comparison to LPS and MCC, Table 14
Experimental: LPS and MCC were included as positive controls as described in Example 7. PBMC were isolated from whole blood using standard Ficoll-Paque Plus (GE Healthcare Life Sciences, Baie d'Urfé, QC, Canada) gradient centrifugation, and placed in tissue culture plates at a concentration of 1×10^6 cells/mL (total volume: 1 mL in RPMI 1640 medium containing 10% heat-inactivated FBS (both from Wisent, St-Bruno, QC, Canada) and 50 μg/mL gentamycin sulfate (Sigma-Aldrich Canada, Oakville, ON, Canada). Non-DNA base-containing polynucleotide SEQ ID NOs: 1, 2, 3, 4, 5, 6, 7, 8 and 9 were added to separate wells to give a final concentration of 10 μg/mL, LPS was added to give a final concentration of 10 μg/mL, and the non-CpG 4010, CpG 2336, CpG 2429 and CpG 7909 polynucleotides, SEQ ID NOs: 31, 33, 35 and 34, respectively, were added to give a final concentration of 10 μg/mL.
The cells were then cultivated for 48 h. Cytokines (interleukins IL-6 and IL-10, chemokines MCP-1 and RANTES) in the culture supernatant were measured using a Milliplex™ MAP kit (Millipore Corporation, Billerica, Mass., USA) on a Bio-Plex 200 system (Bio-Rad Laboratories, Hercules, Calif., USA). MCP-1, also known as monocyte chemotactic protein, is an essential chemokine required for effective monocyte and myeloid dendritic cell activation and trafficking across endothelial and epithelial barriers (see for example Henkel et al, 2004 Ann. Neurol. 55:221-235), and RANTES (Regulated on Activation, Normal T cell Expressed and Secreted, now more commonly known as CCL5) is produced by memory phenotype T cells and is chemotactic for and activates T-cells (see for example Swanson et al, 2002 Immunity 17:605-615).

Substance	Cytokine, IL-6 [pg/mL]	Cytokine, IL-10 [pg/mL]	Cytokine, MCP-1 [pg/mL]	Cytokine, RANTES (CCL5) [pg/mL]	Chemokine (MCP-1, RANTES) inducing activity towards human PBMC (in words)	Interleukin (cytokine) inducing activity towards human PBMC (in words)
5′-GGGGACGACGTCGTCGGGGGG-3′ (DNA dG*dG*dG*dG*dA*dC*dG*dA*dC*dG*dT*dC*dG*dT*dC*dG*dG*dG*dG*dG*dG) [SEQ ID NO: 33, reference compound]	9	0	573	105	strong MCP-1 inducing activity	did not induce cytokines
5′-TCGTCGTTTTCGGCGGCCGCCG-3′ (DNA dT*dC*dG*dT*dC*dG*dT*dT*dT*dT*dC*dG*dG*dC*dG*dG*dC*dC*dG*dC*dC*dG) [SEQ ID NO: 35, reference compound]	42	0	906	136	strong MCP-1 inducing activity	did not induce cytokines
5′-TCGTCGTTTTGTCGTTTTGTCGTT-3′ [SEQ ID NO: 34, reference compound]	41	2	1270	187	strong MCP-1 inducing activity	did not induce cytokines
5′-TGCTGCTTTTTGCTGGCTTTTT-3′ (DNA dT*dG*dC*dT*dG*dC*dT*dT*dT*dT*dT*dG*dC*dT*dG*dG*dC*dT*dT*dT*dT*dT) [SEQ ID NO: 31, reference compound]	43	0	343	275	had chemokine-inducing activity	–
GGGTGGIII (DNA GGGTGGNNN; Three 3' inosines, sugar and linkages not given here, further chemistry not given here) [SEQ ID NO: 7, 5′-OH, 3′-OH non-DNA base-containing polynucleotide]	1	0	79	71	marginal or no	marginal or no
GGGTGGNebNebNeb (DNA GGGTGGNNN; Three 3' nebularines, sugar and linkages not given here, further chemistry not given here) [SEQ ID NO: 5, 5′-OH, 3′-OH non-DNA base-containing polynucleotide]	845	13	3600	202	strong	strong
GGGTGGUUU (DNA GGGTGGNNN; Three 3' uracils, sugar and linkages not given here, further chemistry not given here) [SEQ ID NO: 9, 5′-OH, 3′-OH non-DNA base-containing polynucleotide]	133	1	914	117	strong MCP-1 inducing activity	–
GIG (DNA GNG; Central inosine, sugar and linkages not given here, further chemistry not given here) [SEQ ID NO: 6, 5′-OH, 3′-OH non-DNA base-containing polynucleotide]	0	0	48	137	marginal or no	marginal or no
GNebG (DNA GNG; Central nebularine, sugar and linkages not given here, further chemistry not given here) [SEQ ID NO: 4, 5′-OH, 3′-OH non-DNA base-containing polynucleotide]	1960	28	7000	211	strong	strong
GUG (DNA GNG; Central uracil in DNA, sugar and linkages not given here, further chemistry not given here) [SEQ ID NO: 8, 5′-OH, 3′-OH non-DNA base-containing polynucleotide]	0	0	78	78	marginal or no	marginal or no
